# Test results taken from PMC7182600 (Influenza and Other Respiratory Viruses, 2020).
# Target: NA of rPhuket3073/Yamagata (wild‐type) (Influenza B virus, UniProt A0A1S5RAG6)
# Assay type: biochemical
# Conditions: read-out: IC50 values of NA inhibitors
# NA of rPhuket3073/Yamagata (wild‐type), sequence (A0A1S5RAG6 entry or part of it, added parts left off): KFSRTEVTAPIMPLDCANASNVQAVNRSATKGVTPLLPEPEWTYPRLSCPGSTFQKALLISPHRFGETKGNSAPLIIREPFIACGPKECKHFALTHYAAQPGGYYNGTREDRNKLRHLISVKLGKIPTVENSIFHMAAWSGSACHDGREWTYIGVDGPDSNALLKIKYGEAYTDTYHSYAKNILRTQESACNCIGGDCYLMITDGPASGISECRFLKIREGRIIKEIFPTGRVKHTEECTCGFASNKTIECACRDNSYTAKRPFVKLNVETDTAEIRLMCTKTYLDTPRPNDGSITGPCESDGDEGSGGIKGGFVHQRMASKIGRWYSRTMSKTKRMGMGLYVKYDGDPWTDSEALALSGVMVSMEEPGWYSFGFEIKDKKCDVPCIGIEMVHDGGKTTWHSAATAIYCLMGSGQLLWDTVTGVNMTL
substance,measurement,value
Peramivir,IC50,500 pM
